Measured values: US20260199297A1, “FERROPTOSIS INDUCERS TO TREAT CANCER” (The University of Toledo, priority 2022, published 2026)
Like-named read-outs stand apart in the source and are kept apart here.

Tests used:
MDA-MB-231 cells = experiment: Cytotoxicity (methylene blue cell viability), MDA-MB-231; format: cell-based
Protocol: (§1) Having synthesized the CETZOLE analogs, their cytotoxic activity was evaluated. […] NCI-H522 RV-GFP is the corresponding control with RV-GFP tag, but without SLC7A11 overexpression. […] The cytotoxicity screening was conducted as described previously.
(§2) Cell lines were cultured in a humidified atmosphere containing 10% CO2 in Dulbecco's modified Eagle's medium (Mediatech, Inc) supplemented with 10% fetal bovine serum (Atlanta Biologicals). Cell types used MEFs, HT1080 (human fibrosarcoma cells), NARF2 (osteosarcoma), WI-38 (human embryonic lung fibroblast), MDA MB 231 (breast cancer), HCT-116 (human colon), and NCI-H522 (Non-Small Cell Lung Cancer) cell lines. To determine viability throughout these examples, 5,000 cells were plated per well of a 96-well plate and drugs were added 1 day later. Cells were stained 1 to 3 days later with a saturated solution of methylene blue in 50% ethanol. Plates were rinsed and retained dye was quantified by spectrophotometry. Absorbance was normalized to DMSO and given as 1 or 100% for cell viability. Results are representative of at least two independent experiments. Statistical significance was assessed using the Student's t test. All commercially available chemicals were obtained from Cayman Chemicals unless otherwise noted.

[1] = test system: NCI-H522 and HT-1080 cancer cell lines, WI38 and MEFs normal cell lines; experiment: Selective cytotoxicity assay at a single concentration; format: cell-based; design: dose or concentration left out as unconfirmed; conditions: NCI-H522, HT-1080, WI38, MEFs
Protocol: Overall, WI38 cells were the most tolerant to the treatment, whereas MEF cells were partially tolerant and relatively less sensitive than both NCI-H522 and HT-1080 cells. To determine cytotoxicity at a therapeutically more relevant concentration, cells were treated at a single concentration of […] (FIG. 12).
as §2, with “noted. Compound CETZOLE 1 and the analogs were synthesized as highlighted.” for “noted.”

[2] = test system: NCI-H522 GFP-SLC7A11 #8 cells; experiment: Cytotoxicity (methylene blue cell viability), NCI-H522 clone overexpressing GFP-SLC7A11; format: cell-based, human
Protocol: as §1, §2

[3] = test system: MEFs (Mouse Embryonic Fibroblasts); experiment: Cytotoxicity on normal cell line MEFs; format: cell-based; conditions: read-out: Half maximal inhibitory concentration (IC50), Normal Cell Line Mefs
Protocol: (§3) To determine cytotoxicity at a therapeutically more relevant concentration, cells were treated at a single concentration of […] (FIG. 12).
as §2

[4] = test system: NCI-H522, NCI-H522 GFP-SLC7A11 #8, NCI-H522 RV-GFP, HT-1080, NARF2 and MDA-MB 231 cell lines; experiment: Cytotoxicity screening across the tested cell lines; format: cell-based; conditions: summary over all tested cell lines; read-out: IC50 values against the tested cell lines
Protocol: as §1, §2

NCI-H522 RV-GFP cells = experiment: Cytotoxicity (methylene blue cell viability), NCI-H522 RV-GFP control clone; format: cell-based, human; conditions: Table 1, control clone with RV-GFP tag, read-out: Half maximal inhibitory concentration (IC50), NCI-H522 Rv-GFP
Protocol: as §1, §2

WI38 cells = experiment: Cytotoxicity on normal cell line WI38; format: cell-based, human
Protocol: as §3, §2

[5] = test system: protein bands between 25 kD to 38 kD; experiment: Competitive binding assay against probe PPd (in-gel fluorescence); design: competition of PPd-labelled protein bands, dose-dependent: dose or concentration left out as unconfirmed; conditions: for competition of PPd-labelled protein bands by known ferroptosis inducers: 20 μM concentration, bands 25 kD to 38 kD
HT-1080 cells = experiment: Cytotoxicity (methylene blue cell viability), HT-1080; format: cell-based, human
Protocol: as §1, §2

NCI-H522 cells [6] = experiment: Cytotoxicity (methylene blue cell viability), NCI-H522; format: cell-based, human
Protocol: as §1, §2

NARF2 cells = experiment: Cytotoxicity (methylene blue cell viability), NARF2; format: cell-based, human; conditions: read-out: Half maximal inhibitory concentration (IC50), NARF2
Protocol: as §1, §2

NCI-H522 cells [7] = experiment: Flow cytometry BODIPY-C11 lipid ROS measurement; format: cell-based, human; conditions: for speed of cell death (area under graph): NCI-H522; for lipid peroxidation compared to DMSO: NCI-H522, BODIPY-C11, 3 hours
Protocol: The total cell counts are represented by the area under the graph.
NCI-H522 cells were seeded at 1.5×10^5 cells per 9-cm plate. The next media was replaced with fresh media before treated with drugs along with BODIPY581/591-C11 dye (0.5 μM) (Thermo Fisher). […], and resuspended in 2% FBS containing 1×PBS. Cells were analyzed in FITC channel using a BD LSR Fortessa FAC Scanner. Twenty thousand events per condition were analyzed from three independent samples. The experiments were performed twice, each time with triplicate samples (n=6). Collected data were processed with FlowJo v10 software. Lipid ROS measurement in TR9-7 or NARF2 cells was performed similarly at the indicated conditions as mentioned in the respective figure legends. Where appropriate, dead cells were excluded by gating. When gates were applied, they were identical across samples within an experiment.

NCI-H522 cells [8] = format: cell-based; conditions: human, 3 days
From the text: FIGS. 10A-10C: Results of live cell imaging.
FIG. 16: Evaluation of ferroptosis-inducing character of CETZOLE probes. A three-day ferroptosis rescue assay of NCI-H522 cells treated with DMSO, 1, RSL3, and CETZOLE analogs, and liproxstatin-1 co-treatment, showing significant ferroptosis inducing probes.
The live cell montage images in FIG. 10A show notable ferroptosis-related morphological changes, such as membrane breakage and floating cell debris in the medium. The NCI-H522 cell viability improved overall when cells were co-treated with the radical scavenger liproxstatin-1 (FIG. 10C). […] To confirm this, flow-cytometry was performed to quantify lipid peroxidation using redox-active BODIPY-C11 (FIGS. 11A-11E).
Overall, CETZOLE probes do induce radical-mediated cell death and are therefore indeed ferroptotic agents.
as §2, with “noted. Compound CETZOLE 1 and the analogs were synthesized as highlighted.” for “noted.”

[9] = test system: 60 human cancer cell lines; experiment: NCI 60 human cancer cell line assay, single dose; format: cell-based; conditions: single dose of 10 μM, 60 cell lines
Protocol: The cell lines used in this assay belonged to leukemia, non-small-cell lung cancer, colon cancer, CNS cancer, melanoma, ovarian cancer, renal cancer, prostate cancer, and breast cancer. The compounds were first tested at a single dose of 10 μM.

## COC(=O)c1ccc([C@@H]2c3[nH]c4ccccc4c3C[C@@H](C(=O)OC)N2C(=O)CCl)cc1 [RSL3, reference compound]
MDA-MB-231 cells; Table 1, MDA-MB-231 breast cancer cell line, read-out: Half maximal inhibitory concentration (IC50), MDA-MB-231
  IC50: 0.22 ± 0.02 µM
[1]
  cell death at a single concentration: killed all cell lines indiscriminately
[2]; Table 1, NCI-H522 clone overexpressing GFP-tagged SLC7A11, read-out: Half maximal inhibitory concentration (IC50), NCI-H522 GFP-SCL7A11 #8
  IC50: 2840 ± 900 nM
[3]; Table 2, Mouse Embryonic Fibroblasts
  IC50: 40 ± 20 nM
[4]
  IC50: 140 to 2840 nM
NCI-H522 RV-GFP cells
  IC50: 310 ± 40 nM
WI38 cells; Table 2, lung tissue fibroblast, read-out: Half maximal inhibitory concentration (IC50), Normal Cell Line WI38
  IC50: 50 ± 10 nM
[5]
  competition of PPd-labelled protein bands by known ferroptosis inducers: compete out the same protein bands
HT-1080 cells; Table 1, HT-1080 fibrosarcoma cell line, read-out: Half maximal inhibitory concentration (IC50), HT-1080
  IC50: 140 ± 80 nM
HT-1080 cells; Table 2, read-out: Half maximal inhibitory concentration (IC50), Cancer Cell Line HT1080
  IC50: 140 ± 100 nM
NCI-H522 cells [6]; Table 1, NCI-H522 cancer cell line, read-out: Half maximal inhibitory concentration (IC50), NCI-H522
  IC50: 1100 ± 890 nM
NCI-H522 cells [6]; Table 2, read-out: Half maximal inhibitory concentration (IC50), Cancer Cell Line NCI-H522
  IC50: 1100 ± 890 nM
NARF2 cells; Table 1, NARF2 osteosarcoma cells
  IC50: 2.46 ± 0.76 µM

## C#Cc1nc(C2=C(C)C(O)CC2)cs1 (racemic) [CETZOLE 1, 3-(2-Ethynylthiazol-4-yl)-2-methylcyclopent-2-en-1-ol, reference compound]
MDA-MB-231 cells; Homo sapiens, MDA-MB-231, read-out: Half maximal inhibitory concentration (IC50), MDA-MB-231
  IC50: 6.28 ± 0.73 µM
MDA-MB-231 cells; Homo sapiens, MDA-MB-231, read-out: IC50, MDA-MB-231
  IC50: 3.2 ± 0.2 µM
[2]; Homo sapiens, NCI-H522, read-out: Half maximal inhibitory concentration (IC50), NCI-H522 GFP-SCL7A11 #8
  IC50: 10300 ± 3600 nM
[3]; Mus musculus, Fibroblast
  IC50: 2410 ± 980 nM
WI38 cells; Homo sapiens, WI-38, read-out: Half maximal inhibitory concentration (IC50), Normal Cell Line WI38
  IC50: 2510 ± 40 nM
[5]
  competition of PPd-labelled protein bands by known ferroptosis inducers: compete out the same protein bands
[5]; three bands 25 kD to 38 kD
  competition of PPd-labelled protein bands, dose-dependent: completely competed out
HT-1080 cells; Homo sapiens, HT-1080, read-out: Half maximal inhibitory concentration (IC50), Cancer Cell Line HT1080
  IC50: 3070 ± 1300 nM
HT-1080 cells; Homo sapiens, HT-1080, read-out: Half maximal inhibitory concentration (IC50), HT-1080
  IC50: 3070 ± 1300 nM
HT-1080 cells; Homo sapiens, HT-1080, read-out: IC50, HT-1080
  IC50: 960 ± 110 nM
NCI-H522 cells [6]; Homo sapiens, NCI-H522, read-out: Half maximal inhibitory concentration (IC50), Cancer Cell Line NCI-H522
  IC50: 2500 ± 320 nM
NCI-H522 cells [6]; Homo sapiens, NCI-H522, read-out: Half maximal inhibitory concentration (IC50), NCI-H522
  IC50: 2560 ± 930 nM
NCI-H522 cells [6]; Homo sapiens, NCI-H522, read-out: IC50, NCI-H522
  IC50: 2500 ± 320 nM
NCI-H522 cells [7]
  speed of cell death (area under graph): induced slower cell death
  lipid peroxidation compared to DMSO: induced lipid peroxidation
NARF2 cells; Homo sapiens
  IC50: 14.9 ± 1.3 µM

## C#CCCC(=O)Nc1ccc(C(=O)c2ccc(NC(=O)CO/N=C3\CC(c4csc(C#C)n4)=C(C)C3O)cc2)cc1 (stereo not drawn) [PPe, (E)-N-(4-(4-(2-(((4-(2-Ethynylthiazol-4-yl)-2-hydroxy-3-methylcyclopent-3-en-1-ylidene)amino)oxy)acetamido)benzoyl)phenyl)pent-4-ynamide]
MDA-MB-231 cells; Homo sapiens, MDA-MB-231, Table 3, probes and negative controls, read-out: IC50, MDA-MB-231
  IC50: 1.33 ± 0.02 µM
HT-1080 cells; Homo sapiens, HT-1080, Table 3, probes and negative controls, read-out: IC50, HT-1080
  IC50: 1200 ± 10 nM
NCI-H522 cells [8]
  cell viability on liproxstatin-1 co-treatment (rescue): 45%
NCI-H522 cells [6]; Homo sapiens, NCI-H522, Table 3, probes and negative controls, read-out: IC50, NCI-H522
  IC50: 2600 ± 110 nM

## C#Cc1nc(C2=C(C)/C(=N/OCc3ccccc3)CC2)cs1 [compound 23, (E)-3-(2-Ethynylthiazol-4-yl)-2-methylcyclopent-2-en-1-one O-benzyl oxime]
MDA-MB-231 cells; Homo sapiens, Table 1, MDA-MB-231 breast cancer cell line, read-out: Half maximal inhibitory concentration (IC50), MDA-MB-231
  IC50: 4.17 ± 0.39 µM
[1]
  cell death at a single concentration: did not induce cell death
[2]; Homo sapiens, Table 1, NCI-H522 clone overexpressing GFP-tagged SLC7A11, read-out: Half maximal inhibitory concentration (IC50), NCI-H522 GFP-SCL7A11 #8
  IC50: 2410 ± 1160 nM
[3]; Fibroblast, Table 2, Mouse Embryonic Fibroblasts
  IC50: 1090 ± 460 nM
NCI-H522 RV-GFP cells; Homo sapiens, NCI-H522
  IC50: 2540 ± 440 nM
WI38 cells; Homo sapiens, WI-38, Table 2, lung tissue fibroblast, read-out: Half maximal inhibitory concentration (IC50), Normal Cell Line WI38
  IC50: 2510 ± 810 nM
HT-1080 cells; Homo sapiens, HT-1080, Table 2, read-out: Half maximal inhibitory concentration (IC50), Cancer Cell Line HT1080
  IC50: 810 ± 140 nM
HT-1080 cells; Homo sapiens, Table 1, HT-1080 fibrosarcoma cell line, read-out: Half maximal inhibitory concentration (IC50), HT-1080
  IC50: 810 ± 140 nM
[9]
  mean percentage growth: 27.24
NCI-H522 cells [8]
  cell viability on liproxstatin-1 co-treatment (rescue): 85%
NCI-H522 cells [6]; Homo sapiens, NCI-H522, Table 2, read-out: Half maximal inhibitory concentration (IC50), Cancer Cell Line NCI-H522
  IC50: 1360 ± 110 nM
NCI-H522 cells [6]; Homo sapiens, Table 1, NCI-H522 cancer cell line, read-out: Half maximal inhibitory concentration (IC50), NCI-H522
  IC50: 1360 ± 110 nM
NCI-H522 cells [7]
  speed of cell death (area under graph): induced slower cell death
  lipid peroxidation compared to DMSO: induced lipid peroxidation
NARF2 cells; Homo sapiens, Table 1, NARF2 osteosarcoma cells
  IC50: 19.3 ± 5.9 µM
